Experimental findings from a melting point compilation (Tetko et al.; mined from patent text by program, amines drawn as free bases though some values may be those of a salt) are described below.

As usually defined, the melting point is the temperature of the solid-liquid transition. The molecule `Cc1ccc(C(=O)c2ccncc2C(=O)O)cc1` showed a melting point of 230 to 231 °C.

In turn, `OC(c1ccccc1)(c1ccc(C(F)(F)F)cc1)c1ncc[nH]1` (stereo not given) had a melting point of 174 to 176 °C.

The molecule `Cc1cccc(C)c1-c1nc2ccccc2n2cncc12` gave a melting point of 115 to 125 °C.

As for `CC(C)(C)[Si](C)(C)Oc1cc(Cl)cc(C(O)(C#CC2CC2)C(F)(F)F)c1N` (stereo not given), the melting point lay in the range of 125 to 126 °C.

For the molecule `O=[N+]([O-])C=C1CN=C(c2ccccc2F)c2cc(I)ccc2N1`, the melting point is 214 to 216 °C.

Molecule `O=C(NCc1ccc(Cl)cc1)c1n[nH]c2ncc(I)cc2c1=O` gave a melting point greater than 300 °C.

As for `CS(=O)(=O)C(C#N)=Cc1ccc2[nH]ccc2c1`, the melting point is 184 to 185 °C.

In turn, `Cn1c(C(F)(F)F)cc(=O)n(-c2ccc(Cl)c(CO)c2)c1=O` showed a melting point of 192 to 194 °C.

With `CC1=C(C)c2cc(Br)ccc2Sc2ccccc21`, the melting point is 108 to 111 °C.

Take `Oc1ccc(O)c2[nH]c(-c3ccc(Cl)cc3)nc12`: the melting point was greater than 300 °C.

In turn, `CCOc1ccc(-c2nc(-c3cc(C(=O)O)ccn3)cs2)cc1OCC` registered a melting point of 236 to 237 °C.

In turn, `CC(O)C1COCc2nc3c(N)nc4ccccc4c3n21` (stereo not given) gave a melting point of 208 to 209 °C.

Consider `C#CCOc1cc(Oc2ccc(Cl)cc2)ncn1`, for which the melting point was found to be 100 °C.

For `O=C1CC2Sc3nc(=O)c4ccccc4n3C2(c2ccc(Cl)cc2)O1` (stereo not given), the melting point fell in the range of 215 to 220 °C.

Regarding `O=C1c2ccccc2C(O)N1CCCCCCl` (stereo not given), the melting point was 77 to 79 °C.

`COc1cc(Nc2nccc(Nc3ccc(CC(=O)OCc4ccccc4)cc3)n2)cc(OC)c1OC` came in with a melting point of 149 °C.

`Cc1[nH]c2ccc(/C=C/C(=O)OCc3ccccc3)cc2c1CN(C)C` had a melting point of 174 to 177 °C.

On to `CCCCCCCCCCOc1cnc(-c2ccc(CCCCCC(C)O)cc2)nc1` (stereo not given), for which the melting point lay in the range of 78 to 79 °C.

Turning to `Nc1ncnc(N2CCc3ccccc3CC2)c1[N+](=O)[O-]`, the melting point is greater than 200 °C.

Take `CN1CCC2(CC1)c1ccccc1Oc1c(N)cccc12`: the melting point is 173 to 174 °C.

`CCn1nc(OCCCc2ccc(OC(C)C)cc2OCc2ccc(Cl)cc2Cl)cc1CCC(=O)O` registered a melting point of 110 to 111 °C.

As to `COc1ccc2c(c1)CC(=O)CO2`, the melting point lay within 67 to 72 °C.

As to `CN(C)C(=N)Nc1ccc(F)cc1-c1ccccc1`, the melting point fell in the range of 160 to 161 °C.

Molecule `CCCOCCOC(=O)C1=C(C)NN=C(CC)C1c1cccc([N+](=O)[O-])c1` (stereo not given) came in with a melting point of 76 °C.

As for `CCCC1=C(C(=O)OCC)C(c2cccc([N+](=O)[O-])c2)C(C(=O)OCC)=C(CCC)N1COCC`, the melting point is 109 to 110 °C.

As to `c1cc(CN2CCCCC2)cc(OCCCNc2ncnc3ccccc23)c1`, the melting point worked out at 111 °C.

With `CC(C)(C)c1ccc([C@H]2CCCN2[S@@](=O)C(C)(C)C)cc1`, the melting point lay in the range of 45 to 50 °C.

As to `CNC(=S)N1CCCC(N2CCC(Nc3nc4ccccc4n3Cc3ccc(F)cc3)CC2)C1` (stereo not given), the melting point came out at 219 °C.

The molecule `CCNC(=O)C(C)(C)COc1cccc2nc(C)c(C(=O)O)c(N)c12` yielded a melting point of 168 to 170 °C.

`CC(C)CNC(=O)[C@H]1C[C@H](C(=O)OC(C)(C)C)N(C(=O)CNC(=O)Nc2cccc(C(=O)O)c2)[C@@H]1c1ccccc1F` (racemic) gave a melting point of 160 °C.

`O=C1CC[N+]([O-])=C(c2ccccc2F)c2cc(Cl)ccc21` registered a melting point of 166 to 168 °C.

`Nc1cccc(OC2CCCCO2)c1O` (stereo not given) displayed a melting point of 163 to 166 °C.

The molecule `O=S1(=O)NCN(CCCCF)c2cc(Cl)c(Cl)cc21` displayed a melting point of 141 to 143 °C.

The molecule `CC(=O)C(=Cc1ccc(O)cc1)C(C)=O` came in with a melting point of 123 to 127 °C.

With `O=C(CCc1nc(-c2ccccn2)no1)NC1CCN(Cc2ccc(Cl)c(Cl)c2)CC1`, the melting point was determined as 155 °C.

`CCCc1c(OC(C)=O)cc2oc3cc(Cl)cn3c(=O)c2c1OC(C)=O`: the melting point is 178 to 179 °C.

In the case of `CC(C)(C)c1cc(SCCc2nncs2)cc(C(C)(C)C)c1O`, the melting point lay within 118 to 120 °C.

For the molecule `O=c1oc2cccnc2n1CN1CCN(c2cccc(C(F)(F)F)c2)CC1`, the melting point lay within 112 to 118 °C.

As to `CNC(=O)c1ccc(C=CC(=O)NCC(=O)N(C)c2ccc(Cl)c(COc3cccc4ccc(C)nc34)c2)cc1`, the melting point was 221 to 228 °C.

The molecule `COc1ccc(-c2c(SCc3ccccc3)oc3cc(OCc4ccccc4)ccc3c2=O)cc1` came in with a melting point of 131 °C.

Molecule `N#Cc1cc([N+](=O)[O-])ccc1C=C1C=CN(Cc2ccccc2[N+](=O)[O-])C=C1` displayed a melting point of 193 to 201 °C.

Take `CNS(=O)(=O)CCc1ccc(N)cc1`: the melting point is 101 to 105 °C.

`C[C@@](O)(CO)COc1ccc(Br)cc1` returned a melting point of 90 °C.

In the case of `CC(=O)Oc1ccc(Cl)nc1`, the melting point fell in the range of 45 to 47 °C.

For `CCN1CCC(=O)C(C(c2ccccc2)c2ccccc2)C1` (stereo not given), the melting point fell in the range of 54 to 58 °C.

`CCOC(=O)C1CCC(c2ccc(OCC(=O)O)c(Cl)c2Cl)=CC1=O` (stereo not given) gave a melting point of 193 to 195 °C.

Molecule `O=C(c1cccc(-c2cc3ccccc3n2S(=O)(=O)c2ccccc2)c1)c1cc2ccccc2n1S(=O)(=O)c1ccccc1` yielded a melting point of 189 to 190 °C.

`CC(C)(CNc1ccnc2cc(Cl)ccc12)NCc1cccc(Cl)c1` gave a melting point of 125 to 126 °C.

In turn, `CCCCCCCCCCCCOC(CCCCCCCCCCCC)COCC(O)COc1ccc(N2CCOCC2)cc1` (stereo not given) came in with a melting point of 49 to 52 °C.

Molecule `CN(c1ccnc(C(N)=O)c1)c1ccccc1C(=O)Nc1cc2ccccc2cn1` came in with a melting point of 200 °C.

`CC(C)[C@H](NC1CCCCC1)C(=O)O` registered a melting point greater than 300 °C.

Turning to `O=C(NC(NC(=S)Nc1cccnc1)C(Cl)(Cl)Cl)c1ccc(I)cc1` (stereo not given), the melting point lay within 197 to 199 °C.

`Cc1cc2c(s1)Nc1ccccc1N=C2N1CCN[C@@H](CCc2ccccc2)C1`: the melting point was in the range of 75 to 84 °C.

In turn, `O=C(O)C1CCC(c2cc3cccnc3c(=O)[nH]2)CC1` (stereo not given) showed a melting point greater than 270 °C.

Molecule `CNCc1ccc(-c2ccc(OC)c(Br)c2)cc1` gave a melting point of 65 to 68 °C.

Take `N#CC(=C(O)c1ccncc1)c1ccc(F)cc1`: the melting point was 225 °C.

On to `Cc1cc(-n2cnnn2)cc2ccoc12`, for which the melting point was found to be 118 °C.

Turning to `CCCCCCCCCCCCCN(O)C(=O)N(C)C`, the melting point lay in the range of 57 to 58 °C.

Turning to `O=C1c2ccccc2C(O)N1CCCBr` (stereo not given), the melting point was found to be 79 °C.

The molecule `CC1CCCC(=Cc2ccc(Cl)cc2)C1=O` (stereo not given) returned a melting point of 59 °C.

The molecule `Cc1noc(C)c1COc1ccc(-c2cc(O)c(SCCc3ccccc3)c(=O)o2)cc1` had a melting point of 152 to 154 °C.

As to `OCC(O)Cc1c(OCc2ccccc2)ccc2ncccc12` (stereo not given), the melting point was 160 to 162 °C.

`COC(=O)CCSc1ccc(C=C(C)c2ccc3c(c2)C(C)(C)CCC3(C)C)cc1` had a melting point of 90 to 92 °C.

As to `COc1ccc(N2CCN(CCC3OCCc4cc([Si](C)(C)C)ccc43)CC2)cc1` (stereo not given), the melting point was in the range of 78 to 80 °C.

In turn, `O=C1N=C(N2CCOCC2)SC1c1cncc(-c2cc3c(c(C45CC6CC(CC(C6)C4)C5)c2)OCO3)c1` (stereo not given) had a melting point of 255 to 258 °C.

For the molecule `Cc1ccc(-c2ncc(O)nc2-c2ccc(C)cc2)cc1`, the melting point fell in the range of 250 to 254 °C.

On to `Cc1ccc(-c2ccc3c(c2)C=C(C(=O)Nc2ccc(CNC4CCCCC4)cc2)CCO3)cc1`, for which the melting point is 183 to 184 °C.

Consider `COCCOc1c(F)c(Oc2ccc(S(C)(=O)=O)nc2)cc2cc(C3=NCC(CC(N)=O)S3)[nH]c12` (stereo not given), for which the melting point was 143 to 144 °C.

The molecule `Nc1cc(=O)n(Cc2ccc(Br)c(Br)c2)[nH]1` returned a melting point of 182 °C.

Take `NC(CC1c2ccccc2Oc2ccccc21)(C(=O)O)c1ccc(C(=O)O)c(O)c1` (stereo not given): the melting point fell in the range of 191 to 194 °C.

The molecule `N#CC(=Cc1ccc2[nH]ccc2c1)C(=O)c1ccc(O)c(O)c1` came in with a melting point of 185 °C.

The molecule `O=C1Nc2ccccc2N(C(=O)CN2CCCCC2CN2CCCCC2)c2cscc21` (stereo not given) showed a melting point of 190 to 195 °C.

In turn, `CCc1cc(CC(=O)O)n(C)c1C(=O)c1ccc(Cl)cc1` showed a melting point of 129 to 131 °C.

With `COc1cc(Nc2c(C#N)cnc3cc(-c4ccc(CN5CCOCC5)s4)ccc23)c(Cl)cc1Cl`, the melting point turned out to be 188 °C.

`C[Si](C)(C)CCOCn1cc(C#N)c(=O)c2cc(N)c(N)cc21` yielded a melting point greater than 300 °C.

`CCCCCCCc1cc(O)cc2c1C(=O)OC(C)(C)O2` displayed a melting point of 100 to 102 °C.

As to `Cc1c(Cl)c(C(=O)O)cc([N+](=O)[O-])c1Cl`, the melting point was 152 to 154 °C.

As for `Nc1cc(Cl)nc(Cl)c1N`, the melting point lay within 186 to 188 °C.

In turn, `CCOC(=O)[C@H](O)[C@@H](NC(=O)OC(C)(C)C)c1ccccc1` yielded a melting point of 102 °C.

In the case of `CC(C)OC(=O)c1ccccc1C(=O)O`, the melting point lay within 73 to 77 °C.

`O=C(ON1C(=O)CCC1=O)c1ccc(-c2ccc(S(=O)(=O)N3CCCC(CO)C3)cc2)[nH]c1=O` (stereo not given) showed a melting point of 201 to 204 °C.

`CCNC1N=CN(c2ccccc2C)C(=O)N1` (stereo not given) registered a melting point of 208 to 210 °C.

On to `CN(C)c1ccc2c(c1)nc(/C=C/c1ccccc1)n2-c1ccccn1`, for which the melting point lay within 170 to 171 °C.

`C#CC1(Oc2ccccc2[N+](=O)[O-])CCN(C(C)=O)CC1` returned a melting point of 112 to 115 °C.

In the case of `CCCOc1ccc(C(=O)CN2CCOCC2)cc1-c1nc2c(CCC)nn(C)c2c(=O)[nH]1`, the melting point lay within 128 to 129 °C.

The molecule `Cc1nn(C)c2c(-c3ccc(OC(F)(F)F)cc3)nc(-c3ccc(F)cc3)nc12` registered a melting point of 170 to 172 °C.

For `CC(C(=O)OC12CC3CC(CC(C3)C1)C2)c1ccc2nc(N)sc2c1` (stereo not given), the melting point lay in the range of 151 to 153 °C.

Molecule `C=CS(=O)(=O)Nc1cccc(Nc2nc(N[C@H](C)C(C)(C)C)c3nc[nH]c3n2)c1` displayed a melting point of 133 to 136 °C.

Molecule `CS(=O)(=O)N[C@@H](CCCCNC=O)C(=O)NC[C@H](CC1(C(=O)N[C@@H](Cc2ccc(O)cc2)C(=O)O)CCCC1)C(=O)O` yielded a melting point of 56 to 60 °C.

`CC(=O)Nc1ccc(N2CCC(=O)CC2)cc1` yielded a melting point of 158 to 159 °C.
